Experimental data: patent publication US6339042B1, “Herbicidal N-cyclohexadienyl heteroaryloxyacetamides” (American Cyanamid Co., priority 1999, dated 2002)

Tests used:
Conditions in all cases: three weeks after treatment
[1] = system: Amaranthus tuberculatus; test: Pre-emergence herbicidal evaluation, AMATA; type: in vivo
Text: (§1) The treated pots are then placed on greenhouse benches, watered and cared for in accordance with conventional greenhouse procedures.

[2] = system: Alopecurus myosuroides; test: Pre-emergence herbicidal evaluation, ALOMY; type: in vivo
Text: as §1

[3] = system: Apera spica venti; test: Pre-emergence herbicidal evaluation, APESV; type: in vivo
Text: as §1

[4] = system: Echinochloa crus-galli; test: Pre-emergence herbicidal evaluation, ECHCG; type: in vivo
Text: as §1

[5] = system: Setaria viridis; test: Pre-emergence herbicidal evaluation, SETVI; type: in vivo
Text: as §1

[6] = system: Lolium perenne; test: Pre-emergence herbicidal evaluation, LOLPE; type: in vivo
Text: as §1

[7] = system: Triticum aestivum; test: Pre-emergence herbicidal evaluation, TRZAW; type: in vivo
Text: as §1

[8] = system: Hordeum vulgare; test: Pre-emergence herbicidal evaluation, HORVW; type: in vivo
Text: as §1

[9] = system: Zea mays; test: Pre-emergence herbicidal evaluation, ZEAMX; type: in vivo
Text: as §1

[10] = system: Glycine max; test: Pre-emergence herbicidal evaluation, GLXMA; type: in vivo
Text: as §1

[11] = system: Oryza sativum; test: Pre-emergence herbicidal evaluation, ORYSA; type: in vivo
Text: as §1

[12] = system: Amaranthus tuberculatus; test: Post-emergence herbicidal evaluation, AMATA; type: in vivo
[13] = system: Galium aparine; test: Post-emergence herbicidal evaluation, GALAP
[14] = system: Alopecurus myosuroides; test: Post-emergence herbicidal evaluation, ALOMY
[15] = system: Apera spica venti; test: Post-emergence herbicidal evaluation, APESV
[16] = system: Echinochloa crus-galli; test: Post-emergence herbicidal evaluation, ECHCG
Protocol: (§2) The compounds of the invention are tested for pre- and post-emergence herbicidal activity.
(§3) Each pot is examined three weeks after treatment and phytotoxicity is assessed according to the rating system set forth below.
(§4) These acetone solutions are diluted with water and the resulting formulations applied at dosage levels equivalent of about 0.4 to 0.1 kg per hectare of test compound per pot. After spraying the plants are placed on greenhouse benches and are cared for in the usual manner, commensurate with conventional greenhouse practices.

[17] = system: Setaria viridis; test: Post-emergence herbicidal evaluation, SETVI
Protocol: as §2, §3, §4

[18] = system: Lolium perenne; test: Post-emergence herbicidal evaluation, LOLPE
Protocol: as §3, §4

[19] = system: Triticum aestivum; test: Post-emergence herbicidal evaluation, TRZAW
Protocol: as §3, §4

[20] = system: Hordeum vulgare; test: Post-emergence herbicidal evaluation, HORVW
[21] = system: Zea mays; test: Post-emergence herbicidal evaluation, ZEAMX
[22] = system: Glycine max; test: Post-emergence herbicidal evaluation, GLXMA
[23] = system: Oryza sativum; test: Post-emergence herbicidal evaluation, ORYSA

CC1=CC(N(C)C(=O)COc2nnc(C(F)(F)C(F)(F)F)s2)=CC(C)(C)C1 [Example 7]
4 (4 - Injury): phytotoxicity rating ALOMY ([14]; 0.400 kg/ha)
6 (6 - Herbicidal effect): phytotoxicity rating ECHCG ([4]; 0.400 kg/ha) | phytotoxicity rating LOLPE ([18]; 0.200 kg/ha) | phytotoxicity rating LOLPE ([18]; 0.400 kg/ha)
3 (3 - Moderate effect): phytotoxicity rating AMATA ([1]; 0.400 kg/ha) | phytotoxicity rating AMATA ([1]; 0.800 kg/ha) | phytotoxicity rating LOLPE ([6]; 0.400 kg/ha) | phytotoxicity rating AMATA ([12]; 0.100 kg/ha) | phytotoxicity rating AMATA ([12]; 0.200 kg/ha) | phytotoxicity rating GALAP ([13]; 0.200 kg/ha) | phytotoxicity rating ORYSA ([23]; 0.400 kg/ha)
1 (1 - Trace effect): phytotoxicity rating HORVW ([8]; 0.400 kg/ha) | phytotoxicity rating HORVW ([8]; 0.800 kg/ha) | phytotoxicity rating ZEAMX ([9]; 0.800 kg/ha)
9 (9 - Complete kill): phytotoxicity rating ECHCG ([4]; 0.800 kg/ha) | phytotoxicity rating LOLPE ([6]; 0.800 kg/ha)
0 (0 - No effect): phytotoxicity rating AMATA ([1]; 0.100 kg/ha) | phytotoxicity rating AMATA ([1]; 0.200 kg/ha) | phytotoxicity rating ALOMY ([2]; 0.100 kg/ha) | phytotoxicity rating APESV ([3]; 0.200 kg/ha) | phytotoxicity rating APESV ([3]; 0.400 kg/ha) | phytotoxicity rating ECHCG ([4]; 0.100 kg/ha) | phytotoxicity rating ECHCG ([4]; 0.200 kg/ha) | phytotoxicity rating SETVI ([5]; 0.100 kg/ha) | phytotoxicity rating SETVI ([5]; 0.200 kg/ha) | phytotoxicity rating SETVI ([5]; 0.400 kg/ha) | phytotoxicity rating LOLPE ([6]; 0.100 kg/ha) | phytotoxicity rating LOLPE ([6]; 0.200 kg/ha) | phytotoxicity rating TRZAW ([7]; 0.100 kg/ha) | phytotoxicity rating TRZAW ([7]; 0.200 kg/ha) | phytotoxicity rating TRZAW ([7]; 0.400 kg/ha) | phytotoxicity rating TRZAW ([7]; 0.800 kg/ha) | phytotoxicity rating HORVW ([8]; 0.100 kg/ha) | phytotoxicity rating HORVW ([8]; 0.200 kg/ha) | phytotoxicity rating ZEAMX ([9]; 0.100 kg/ha) | phytotoxicity rating ZEAMX ([9]; 0.200 kg/ha) | phytotoxicity rating ZEAMX ([9]; 0.400 kg/ha) | phytotoxicity rating GLXMA ([10]; 0.100 kg/ha) | phytotoxicity rating GLXMA ([10]; 0.200 kg/ha) | phytotoxicity rating GLXMA ([10]; 0.400 kg/ha) | phytotoxicity rating GLXMA ([10]; 0.800 kg/ha) | phytotoxicity rating ORYSA ([11]; 0.100 kg/ha) | phytotoxicity rating ORYSA ([11]; 0.200 kg/ha) | phytotoxicity rating ORYSA ([11]; 0.400 kg/ha) | phytotoxicity rating GALAP ([13]; 0.100 kg/ha) | phytotoxicity rating ALOMY ([14]; 0.100 kg/ha) | phytotoxicity rating ALOMY ([14]; 0.200 kg/ha) | phytotoxicity rating APESV ([15]; 0.100 kg/ha) | phytotoxicity rating APESV ([15]; 0.200 kg/ha) | phytotoxicity rating ECHCG ([16]; 0.100 kg/ha) | phytotoxicity rating ECHCG ([16]; 0.200 kg/ha) | phytotoxicity rating ECHCG ([16]; 0.400 kg/ha) | phytotoxicity rating SETVI ([17]; 0.100 kg/ha) | phytotoxicity rating SETVI ([17]; 0.200 kg/ha) | phytotoxicity rating SETVI ([17]; 0.400 kg/ha) | phytotoxicity rating LOLPE ([18]; 0.100 kg/ha) | phytotoxicity rating TRZAW ([19]; 0.100 kg/ha) | phytotoxicity rating TRZAW ([19]; 0.200 kg/ha) | phytotoxicity rating TRZAW ([19]; 0.400 kg/ha) | phytotoxicity rating HORVW ([20]; 0.100 kg/ha) | phytotoxicity rating HORVW ([20]; 0.200 kg/ha) | phytotoxicity rating HORVW ([20]; 0.400 kg/ha) | phytotoxicity rating ZEAMX ([21]; 0.100 kg/ha) | phytotoxicity rating ZEAMX ([21]; 0.200 kg/ha) | phytotoxicity rating ZEAMX ([21]; 0.400 kg/ha) | phytotoxicity rating ORYSA ([23]; 0.100 kg/ha) | phytotoxicity rating ORYSA ([23]; 0.200 kg/ha)
5 (5 - Definite injury): phytotoxicity rating ALOMY ([2]; 0.400 kg/ha) | phytotoxicity rating ALOMY ([2]; 0.800 kg/ha) | phytotoxicity rating AMATA ([12]; 0.400 kg/ha) | phytotoxicity rating GALAP ([13]; 0.400 kg/ha) | phytotoxicity rating GLXMA ([22]; 0.400 kg/ha)
2 (2 - Slight effect): phytotoxicity rating ALOMY ([2]; 0.200 kg/ha) | phytotoxicity rating SETVI ([5]; 0.800 kg/ha) | phytotoxicity rating ORYSA ([11]; 0.800 kg/ha) | phytotoxicity rating APESV ([15]; 0.400 kg/ha) | phytotoxicity rating GLXMA ([22]; 0.100 kg/ha) | phytotoxicity rating GLXMA ([22]; 0.200 kg/ha)
7 (7 - Good herbicidal effect): phytotoxicity rating APESV ([3]; 0.800 kg/ha)
